According to patent publication US7395112B2, “Method and apparatus for treating tumors using low strength electric fields” (priority 2002, dated 2008):

Test system: B16-F10.9 melanoma
Test: LEFCT-EC in mice bearing subcutaneous B16-F10.9 melanoma
Type: in vivo, C57BL/6 mice
Conditions: for Tumor size (mean ± standard error): 7 days after treatment
Procedure: Animals: C57BL/6 male mice were obtained from the breeding colony of Tel-Aviv University, Israel. Mice were used at 8-12 weeks of age. Animal care and experimentation was carried out in accordance with Tel-Aviv University guidelines.
Melanoma tumor cell line: The highly metastatic, poorly immunogenic B16-F10.9 (F10.9) subclone of the B16 melanoma cell line was used to generate melanoma tumors in mice (Eisenbach L. et al., 1984. Int J Cancer 34:567). Cells were maintained in DMEM supplemented with 100 U/ml penicillin, 100 μg/ml streptomycin, 4 mM glutamine, 1 mM sodium pyruvate, 1% non-essential amino acids and 10% heat-inactivated fetal calf serum (FCS); and were cultured at 37° C. in a humidified incubator in an atmosphere of 7% carbon dioxide and 93% air.
Tumor generation protocol: F10.9 tumors were induced in C57BL/6 mice by subcutaneous injection of 2×10^5 F10.9 cells. Mice were subjected to experimental treatments once tumors reached 5 mm in diameter (about 60-70 mm^3). Chemotherapeutic drugs: The following chemotherapeutic drugs used were: cis-platinum (II) diamminedichloride (cisplatin; #P-4394, Sigma, Israel), dissolved in PBS for injections; Taxol (Mead Johnson Oncology Products, A Bristol-Myers Squibb, USA), obtained as a sterile nonpyrogenic solution containing 6 mg/ml paclitaxel, 527 mg/ml of purified Cremophor EL (polyoxyethylated castor oil) and 5-FU (Abic, Israel).
Low-strength electric field enhanced cancer therapy protocol: Mice were subjected to a single treatment of LEFCT-EC, once tumors reached 5 mm in diameter (11-17 days following tumor cell inoculation). Volumes of up to 100 μl of chemotherapeutic agents were injected into tumor loci, and exposures to electric fields were carried out 3-4 min following intratumoral injection of chemotherapeutic agents. To expose tumors to electric fields, stainless steel electrode needles (Karlsbader insect pins No 0. BioQuip Products, USA) soldered at their brassy ends with thin isolated copper wires were used. Electrodes were inserted to a depth of about 7 mm percutaneously into and in the immediate vicinity of the tumor; one cathode needle in the center of the tumor and three peripheral anodes, at a distance of about 5 mm from the cathode. The needles were connected to an electric pulse generator (Grass S48 Stimulator, USA). The field strength applied was about 40 V/cm; the repetition frequency, 500 Hz; and the pulse width, 180 μs. All mice were anesthetized prior to LEF treatment.
Statistical analysis: Statistical analysis of survival times (Kaplan-Meir test), survival comparisons between groups (Mantel-Cox test) and tumor volume differences between groups (Kolmogorov-Smirnov test) were performed using StatSoft Statistica statistical software. The 10-15% mortality rate in the 5 days following LEF or LEF-chemotherapy was considered as treatment-caused, therefore such cases of mortality were excluded.
Tumor volume determination: performed as described above in Example 1 of the Examples section.

bleomycin
Tumor size (mean ± standard error) (LEF-CT (drug + LEF), cisplatin 4 mg/kg, bleomycin 8 U/kg, 5-FU 150 mg/kg, taxol 20 mg/kg): 573 ± 138 mm^3 | mean survival time (MST) (LEF-chemotherapy: intratumoral drug + LEF about 40 V/cm 12 min, 120 days (cisplatin) or 180 days (taxol, bleomycin) after inoculation): 48 days | cure rate / animals alive and free of visible tumor (LEF-chemotherapy, 180 days after tumor inoculation): 8.2% | mean survival time (MST) (chemotherapy alone, intratumoral, no LEF): 34.3 days | Tumor size (mean ± standard error) (intratumoral drug injection alone, same doses): 2456 ± 220 mm^3 | LEFCT-EC treated mice that died two months and later after treatment with pulmonary metastatic foci, free of primary tumor (pooled statement for cisplatin, taxol or bleomycin): About 10% | MST (route comparison: bleomycin 8 U/kg intraperitoneally + LEF): 34.6 days | MST (route comparison: bleomycin 8 U/kg intratumorally + LEF): 46.6 days | animals alive (route comparison: bleomycin 8 U/kg intratumorally + LEF, 180 days after tumor inoculation): 5%
